Consider 3 compounds from ChEMBL document CHEMBL5154787 (J Med Chem, 2022).

Data set [1] deals with AP2-associated protein kinase 1 (Homo sapiens, UniProt Q2M2I8). Description: Inhibition of full length human AAK1 expressed in HEK293F cells assessed as suppression of AP2 phosphorylation measured after 3 hrs by Western blot analysis based cellular assay. Format: cell-based. Background: In western blotting, separated proteins are transferred to a membrane and probed.
Data set [2] can be described thus: Metabolic stability in human liver microsomes assessed as parent compound remaining at 0.5 uM incubated for 10 mins in presence of NADPH by LC-MS/MS analysis. Format: ADME, Microsome. The conditions noted are these: read-out: Stability.
The nature of data set [3]: Metabolic stability in rat liver microsomes assessed as parent compound remaining at 0.5 uM incubated for 10 mins in presence of NADPH by LC-MS/MS analysis. Conditions: read-out: Stability. Format: ADME, Microsome. In general terms: Microsomes from liver hold many membrane-bound enzymes, among them those of drug oxidation.
A short description of data set [4]: Metabolic stability in mouse liver microsomes assessed as parent compound remaining at 0.5 uM incubated for 10 mins in presence of NADPH by LC-MS/MS analysis. Format: ADME, Microsome. Conditions: for remaining at 10 min, 0.5 µM: liver microsomes, read-out: Stability.
Data set [5] deals with T1, Cytochrome P450 3A4 (Homo sapiens, UniProt P08684). Description: Inhibition of CYP3A4 (unknown origin) incubated for 10 mins in presence of NADPH by LC-MS/MS analysis. Format: ADME.
Data set [6] can be described thus: Volume of distribution at steady state in rat at 3 mg/kg,po or 2 mg/kg,iv. The conditions noted are these: in vivo. Format: ADME, organism-based.
Data set [7] in a line: Half life in rat at 3 mg/kg, po or 2 mg/kg, iv. The conditions noted are these: in vivo. Format: ADME, organism-based.
Data set [8] is described as follows: Total body clearance in rat at 3 mg/kg, po or 2 mg/kg, iv. Format: ADME, organism-based. Conditions: in vivo, read-out: CLt/F.
The nature of data set [9]: Permeability of compound at pH 5.5 incubated for 4 hrs by PAMPA assay. Format: ADME. Conditions: read-out: permeability.
A short description of data set [10]: Permeability of compound at pH 7.4 incubated for 4 hrs by PAMPA assay. Format: ADME. The conditions noted are these: read-out: permeability. In general terms: PAMPA measures passive passage across an artificial lipid membrane.
Data set [11] is described as follows: Permeability across apical to basolateral side in human Caco-2 cells. The conditions noted are these: read-out: permeability. Format: ADME, cell-based.
The nature of data set [12]: Permeability across basolateral to apical side in human Caco-2 cells. Format: ADME, cell-based. Conditions: read-out: permeability.
Data set [13] in a line: Protein binding in rat plasma assessed as unbound fraction measured after 3 hrs by LC/MS/MS analysis. Format: ADME, cell-free.
The nature of data set [14]: Metabolic stability in human liver microsomes assessed as half life incubated at 0.5 uM for 10 mins in presence of NADPH by LC-MS/MS analysis. Format: ADME, Microsome.
A short description of data set [15]: Metabolic stability in rat liver microsomes assessed as half life incubated at 0.5 uM for 10 mins in presence of NADPH by LC-MS/MS analysis. Format: ADME, Microsome.
Data set [16] in a line: Metabolic stability in mouse liver microsomes assessed as half life incubated at 0.5 uM for 10 mins in presence of NADPH by LC-MS/MS analysis. Format: ADME, Microsome. The conditions noted are these: for half-life at 0.5 µM: liver microsomes.
The nature of data set [17]: Metabolic stability in cynomolgus monkey liver microsomes assessed as half life incubated at 0.5 uM for 10 mins in presence of NADPH by LC-MS/MS analysis. Format: ADME, Macaca fascicularis, Microsome.
For another data set, the target named is Cytochrome P450 2C19 (Homo sapiens, UniProt P33261). The data set is described as follows: Inhibition of CYP2C19 (unknown origin) incubated for 10 mins in presence of NADPH by LC-MS/MS analysis. Format: ADME.
The target of the next data set is Cytochrome P450 2C9 (Homo sapiens, UniProt P11712). Description: Inhibition of CYP2C9 (unknown origin) incubated for 10 mins in presence of NADPH by LC-MS/MS analysis. Format: ADME.
In data set [18] the target is T1, Cytochrome P450 3A4. Description: Inhibition of […] (unknown origin) using BFC as substrate incubated for 10 mins in presence of NADPH by LC-MS/MS analysis. Format: ADME.
In data set [19] the target is BMP-2-inducible protein kinase (Homo sapiens, UniProt Q9NSY1). Description: Inhibition of BIKE (unknown origin).
Data set [20] deals with T2, Cyclin-G-associated kinase (Homo sapiens, UniProt O14976).
T2 sequence (O14976 whole entry): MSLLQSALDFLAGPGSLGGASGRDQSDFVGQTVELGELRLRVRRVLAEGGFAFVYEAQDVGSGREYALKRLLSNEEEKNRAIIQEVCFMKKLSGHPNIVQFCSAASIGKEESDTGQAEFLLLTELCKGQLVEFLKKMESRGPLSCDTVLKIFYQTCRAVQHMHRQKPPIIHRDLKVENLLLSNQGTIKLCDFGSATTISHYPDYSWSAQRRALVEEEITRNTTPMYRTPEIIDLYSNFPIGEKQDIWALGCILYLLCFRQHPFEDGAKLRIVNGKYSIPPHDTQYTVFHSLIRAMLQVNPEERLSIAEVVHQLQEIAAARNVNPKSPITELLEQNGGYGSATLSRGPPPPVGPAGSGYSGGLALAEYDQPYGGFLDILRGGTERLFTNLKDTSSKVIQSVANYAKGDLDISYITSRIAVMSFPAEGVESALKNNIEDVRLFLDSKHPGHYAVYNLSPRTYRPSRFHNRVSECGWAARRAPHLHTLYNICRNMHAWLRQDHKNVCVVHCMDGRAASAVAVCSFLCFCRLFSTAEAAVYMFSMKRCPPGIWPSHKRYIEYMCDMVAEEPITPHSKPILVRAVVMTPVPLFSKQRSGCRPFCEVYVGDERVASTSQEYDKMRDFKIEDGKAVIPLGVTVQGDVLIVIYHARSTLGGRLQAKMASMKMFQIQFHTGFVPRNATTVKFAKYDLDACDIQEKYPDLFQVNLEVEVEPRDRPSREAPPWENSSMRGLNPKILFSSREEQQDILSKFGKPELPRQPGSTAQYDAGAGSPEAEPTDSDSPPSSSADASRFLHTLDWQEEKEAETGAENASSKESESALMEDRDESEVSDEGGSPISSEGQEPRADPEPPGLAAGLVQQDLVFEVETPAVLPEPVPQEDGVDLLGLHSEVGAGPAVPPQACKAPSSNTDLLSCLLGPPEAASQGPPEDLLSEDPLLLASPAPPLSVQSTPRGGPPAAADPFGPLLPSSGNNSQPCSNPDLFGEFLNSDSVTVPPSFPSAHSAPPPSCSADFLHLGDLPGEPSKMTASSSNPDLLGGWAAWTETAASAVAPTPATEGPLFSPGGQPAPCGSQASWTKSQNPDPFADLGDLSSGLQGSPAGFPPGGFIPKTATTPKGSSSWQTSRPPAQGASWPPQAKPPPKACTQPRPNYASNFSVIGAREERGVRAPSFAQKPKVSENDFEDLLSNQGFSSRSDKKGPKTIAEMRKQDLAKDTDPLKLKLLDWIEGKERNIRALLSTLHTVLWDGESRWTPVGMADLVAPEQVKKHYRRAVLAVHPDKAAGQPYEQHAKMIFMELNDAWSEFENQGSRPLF
The data set is described as follows: Inhibition of GAK (unknown origin).

In data set [21] the target is MAP kinase-interacting serine/threonine-protein kinase 2 (Homo sapiens, UniProt Q9HBH9). The data set is described as follows: Inhibition of MNK2 (unknown origin).
Data set [22] can be described thus: Cardiotoxicity in aortic ring (unknown origin) assessed as relaxation of phenylephrine induced aortic ring contraction at 10 uM incubated for 1 hr. Format: toxicity, tissue-based, Aorta. The arrangement: scale not given: the % may be the effect or the level left. The conditions noted are these: human.

Sequence of BMP-2-inducible protein kinase (Q9NSY1 whole entry): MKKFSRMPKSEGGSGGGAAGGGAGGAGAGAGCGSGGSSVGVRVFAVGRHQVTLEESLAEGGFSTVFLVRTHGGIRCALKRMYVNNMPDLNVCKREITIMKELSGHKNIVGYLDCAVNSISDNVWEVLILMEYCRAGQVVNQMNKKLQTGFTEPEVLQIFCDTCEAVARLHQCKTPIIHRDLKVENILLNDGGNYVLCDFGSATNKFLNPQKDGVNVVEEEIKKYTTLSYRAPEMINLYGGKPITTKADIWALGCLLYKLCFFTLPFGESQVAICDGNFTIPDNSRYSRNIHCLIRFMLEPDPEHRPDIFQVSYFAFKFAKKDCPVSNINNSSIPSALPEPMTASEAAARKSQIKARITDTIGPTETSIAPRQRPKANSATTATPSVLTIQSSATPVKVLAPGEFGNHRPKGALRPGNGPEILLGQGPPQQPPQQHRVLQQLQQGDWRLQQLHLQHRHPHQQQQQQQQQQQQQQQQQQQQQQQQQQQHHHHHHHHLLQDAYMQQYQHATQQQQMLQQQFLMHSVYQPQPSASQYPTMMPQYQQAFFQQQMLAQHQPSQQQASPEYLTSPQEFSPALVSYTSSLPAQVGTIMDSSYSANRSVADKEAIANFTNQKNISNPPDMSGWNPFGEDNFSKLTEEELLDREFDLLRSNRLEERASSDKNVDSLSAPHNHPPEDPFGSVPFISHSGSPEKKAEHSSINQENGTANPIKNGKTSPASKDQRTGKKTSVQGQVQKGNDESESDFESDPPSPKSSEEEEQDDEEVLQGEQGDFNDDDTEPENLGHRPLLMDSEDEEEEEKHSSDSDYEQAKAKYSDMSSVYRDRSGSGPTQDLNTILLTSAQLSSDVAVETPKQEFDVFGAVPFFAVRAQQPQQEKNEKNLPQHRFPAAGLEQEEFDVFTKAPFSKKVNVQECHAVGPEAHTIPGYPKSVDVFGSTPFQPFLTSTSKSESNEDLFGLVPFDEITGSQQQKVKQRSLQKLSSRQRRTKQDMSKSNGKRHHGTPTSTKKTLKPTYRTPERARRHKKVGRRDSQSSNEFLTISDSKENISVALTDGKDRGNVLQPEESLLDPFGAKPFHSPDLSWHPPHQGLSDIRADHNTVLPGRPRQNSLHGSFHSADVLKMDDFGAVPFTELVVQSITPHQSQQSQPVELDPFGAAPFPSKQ
T1 sequence (P08684 whole entry): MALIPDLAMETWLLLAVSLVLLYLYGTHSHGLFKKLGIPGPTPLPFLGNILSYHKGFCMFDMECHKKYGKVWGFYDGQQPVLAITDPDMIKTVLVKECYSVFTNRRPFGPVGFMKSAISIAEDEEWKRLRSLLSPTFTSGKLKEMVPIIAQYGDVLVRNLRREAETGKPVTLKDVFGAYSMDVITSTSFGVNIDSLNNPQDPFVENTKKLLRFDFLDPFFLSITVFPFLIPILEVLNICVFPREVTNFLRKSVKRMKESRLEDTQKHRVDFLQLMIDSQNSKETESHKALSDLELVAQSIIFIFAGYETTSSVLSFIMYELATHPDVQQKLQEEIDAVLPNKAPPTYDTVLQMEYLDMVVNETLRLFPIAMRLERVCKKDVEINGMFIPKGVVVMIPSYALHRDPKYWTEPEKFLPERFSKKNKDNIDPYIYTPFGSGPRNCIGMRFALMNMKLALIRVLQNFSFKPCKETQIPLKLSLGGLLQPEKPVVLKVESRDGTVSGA
Sequence of AP2-associated protein kinase 1 (Q2M2I8 whole entry): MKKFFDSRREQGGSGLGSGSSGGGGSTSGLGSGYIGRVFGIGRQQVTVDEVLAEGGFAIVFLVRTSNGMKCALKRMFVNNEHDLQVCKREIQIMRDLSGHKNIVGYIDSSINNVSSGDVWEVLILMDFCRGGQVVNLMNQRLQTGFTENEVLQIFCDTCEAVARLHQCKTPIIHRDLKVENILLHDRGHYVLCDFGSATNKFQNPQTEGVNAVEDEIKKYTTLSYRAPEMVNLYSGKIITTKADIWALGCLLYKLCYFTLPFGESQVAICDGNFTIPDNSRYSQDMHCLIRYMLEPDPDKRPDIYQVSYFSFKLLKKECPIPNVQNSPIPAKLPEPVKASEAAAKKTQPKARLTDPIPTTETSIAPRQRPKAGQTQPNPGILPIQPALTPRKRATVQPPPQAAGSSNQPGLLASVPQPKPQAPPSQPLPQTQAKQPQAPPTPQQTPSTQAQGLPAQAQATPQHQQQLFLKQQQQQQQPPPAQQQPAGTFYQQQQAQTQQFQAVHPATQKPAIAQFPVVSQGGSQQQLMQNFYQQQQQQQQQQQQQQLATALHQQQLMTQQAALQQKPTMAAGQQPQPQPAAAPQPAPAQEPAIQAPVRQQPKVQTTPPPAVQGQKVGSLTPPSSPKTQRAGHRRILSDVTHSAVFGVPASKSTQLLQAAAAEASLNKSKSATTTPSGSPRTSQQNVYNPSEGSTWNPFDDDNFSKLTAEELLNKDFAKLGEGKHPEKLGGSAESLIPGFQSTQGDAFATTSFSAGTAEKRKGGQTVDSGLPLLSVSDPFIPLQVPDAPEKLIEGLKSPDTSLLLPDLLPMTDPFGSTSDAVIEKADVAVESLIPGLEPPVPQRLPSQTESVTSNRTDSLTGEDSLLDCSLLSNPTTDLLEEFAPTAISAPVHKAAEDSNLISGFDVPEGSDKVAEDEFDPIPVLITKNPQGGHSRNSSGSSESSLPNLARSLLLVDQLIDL
Sequence of Cytochrome P450 2C19 (P33261 whole entry): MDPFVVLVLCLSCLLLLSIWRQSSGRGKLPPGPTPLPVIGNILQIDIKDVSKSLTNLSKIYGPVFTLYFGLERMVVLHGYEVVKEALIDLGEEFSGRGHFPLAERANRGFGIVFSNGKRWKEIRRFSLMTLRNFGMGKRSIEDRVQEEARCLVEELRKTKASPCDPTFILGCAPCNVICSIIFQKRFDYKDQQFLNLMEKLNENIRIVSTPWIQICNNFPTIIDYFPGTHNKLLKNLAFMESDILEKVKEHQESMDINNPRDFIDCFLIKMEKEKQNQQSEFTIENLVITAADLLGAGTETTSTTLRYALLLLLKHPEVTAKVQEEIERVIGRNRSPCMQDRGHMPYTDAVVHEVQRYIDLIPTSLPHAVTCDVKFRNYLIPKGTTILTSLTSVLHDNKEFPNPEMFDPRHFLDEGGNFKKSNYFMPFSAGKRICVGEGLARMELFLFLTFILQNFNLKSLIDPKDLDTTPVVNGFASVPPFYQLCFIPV
Sequence of MAP kinase-interacting serine/threonine-protein kinase 2 (Q9HBH9 whole entry): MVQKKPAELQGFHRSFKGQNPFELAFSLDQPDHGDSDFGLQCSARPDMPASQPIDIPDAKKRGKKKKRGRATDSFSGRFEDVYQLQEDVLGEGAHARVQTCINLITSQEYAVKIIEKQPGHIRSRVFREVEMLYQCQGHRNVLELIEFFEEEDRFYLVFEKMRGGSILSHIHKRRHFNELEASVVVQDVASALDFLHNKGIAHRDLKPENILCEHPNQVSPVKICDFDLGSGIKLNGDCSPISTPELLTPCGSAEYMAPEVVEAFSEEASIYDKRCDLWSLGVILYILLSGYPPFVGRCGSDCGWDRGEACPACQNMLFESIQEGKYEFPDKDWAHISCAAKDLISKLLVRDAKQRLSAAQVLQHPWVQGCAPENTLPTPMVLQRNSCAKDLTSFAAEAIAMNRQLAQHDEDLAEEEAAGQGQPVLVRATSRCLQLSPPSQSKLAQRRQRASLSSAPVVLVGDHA
Sequence of Cytochrome P450 2C9 (P11712 whole entry): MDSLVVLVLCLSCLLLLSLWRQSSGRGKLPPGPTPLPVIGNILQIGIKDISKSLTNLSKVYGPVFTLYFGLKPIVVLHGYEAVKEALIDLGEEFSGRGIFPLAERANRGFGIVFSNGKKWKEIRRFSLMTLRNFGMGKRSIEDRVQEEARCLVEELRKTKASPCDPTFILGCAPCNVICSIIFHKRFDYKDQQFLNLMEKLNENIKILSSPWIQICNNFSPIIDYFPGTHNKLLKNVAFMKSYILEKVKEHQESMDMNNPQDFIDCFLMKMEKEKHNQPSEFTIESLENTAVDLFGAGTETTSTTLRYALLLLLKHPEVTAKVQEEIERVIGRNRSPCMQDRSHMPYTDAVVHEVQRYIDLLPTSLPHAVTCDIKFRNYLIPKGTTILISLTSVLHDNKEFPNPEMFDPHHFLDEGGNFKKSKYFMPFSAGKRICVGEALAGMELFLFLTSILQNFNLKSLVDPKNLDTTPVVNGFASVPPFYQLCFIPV

Turning to `COC(=O)Nc1cc(-c2ccc(OC[C@@](C)(N)CC(C)C)c(C)n2)ccn1`, the IC50 in [1] was 2.4 nM; on Cytochrome P450 3A4 [5], more than 20000 nM; at Cytochrome P450 2C19, more than 20000 nM; on Cytochrome P450 2C9, more than 20000 nM; at Cytochrome P450 3A4 [18], more than 20000 nM; in data set [19], 90 nM. In addition, the IC50 in data set [20] worked out at 210 nM; in data set [21] it was 1500 nM. Further, the remaining at 10 min, 0.5 µM in [2] is 95%; in [3], 95%; in [4], 93%. Moreover, in data set [6], the Vdss was 16.3 L/kg. In data set [7], this compound had a half-life of 11.3 h. Moreover, in data set [8], the CL/F came to 17.3 mL/min/kg. The Papp at 4 h in [9] was determined as 82.4 ×10⁻⁶ cm/s; in data set [10] it was 86.4 ×10⁻⁶ cm/s. For the same compound, in data set [11], the Papp A→B came out at 35.7 ×10⁻⁶ cm/s. Also, in data set [12], the Papp B→A was 38.4 ×10⁻⁶ cm/s. For the same compound, the fraction unbound at 3 h in [13] was 0.225. In addition, the half-life at 0.5 µM in data set [14] is more than 2 h; in data set [15] it was 1.42 h; in data set [16] it was 1.53 h; in data set [17] it was 0.85 h. In addition, in [22], the Activity came out at 36%.
On to `COC(=O)Nc1cc(-c2cnc(OC[C@@](C)(N)CC(C)C)c(C)c2)ccn1`, for which the IC50 was 3.4 nM in data set [1]; more than 20000 nM on Cytochrome P450 3A4 [5]; more than 20000 nM on Cytochrome P450 2C19; more than 20000 nM at Cytochrome P450 2C9; more than 20000 nM at Cytochrome P450 3A4 [18]; 10 nM in [19]. For the same compound, the IC50 turned out to be 440 nM in [20] and 1300 nM in data set [21]. For the same compound, the remaining at 10 min, 0.5 µM came out at 92% in data set [2] and 83% in data set [3]. For the same compound, the Stability in data set [4] (microsomes, 10 min, 0.5 µM) was determined as 68%. This compound displayed a Vdss in data set [6] of 30.9 L/kg. The half-life in data set [7] was 7.55 h. The CL/F in [8] was found to be 63.6 mL/min/kg. Further, the Papp at 4 h stood at 56.5 ×10⁻⁶ cm/s in data set [9] and 69.7 ×10⁻⁶ cm/s in data set [10]. Moreover, in data set [11], the Papp A→B came out at 17.2 ×10⁻⁶ cm/s. The Papp B→A in [12] was determined as 17.3 ×10⁻⁶ cm/s. The fraction unbound at 3 h in data set [13] was determined as 0.105. Moreover, the half-life at 0.5 µM was more than 2 h in data set [14], 0.7 h in data set [15] and 1.28 h in data set [17]. The t1/2 in data set [16] (microsomes, 10 min, 0.5 µM) came out at 0.9 h. The Activity in [22] was determined as 66%.
For `CC(C)C[C@](C)(N)COc1cnc(-c2ccnc(C(F)F)c2)cc1C(F)F`, the IC50 in [1] was 0.5 nM; on Cytochrome P450 3A4 [5], more than 20000 nM; at Cytochrome P450 2C19, more than 20000 nM; at Cytochrome P450 2C9, more than 20000 nM; at Cytochrome P450 3A4 [18] it was more than 20000 nM; in data set [19] it was 180 nM. For the same compound, the results for the IC50 in data set [20] and in data set [21] were 400 nM and 1600 nM, respectively. Besides, the remaining at 10 min, 0.5 µM in data set [2] was found to be 89%; in data set [3], 85%; in data set [4], 89%. Besides, the Vdss in [6] stood at 41.3 L/kg. In data set [7], this compound gave a half-life of 5.02 h. In data set [8], the CL/F worked out at 119 mL/min/kg. Also, the values for the Papp at 4 h in data set [9] and in [10] were 40.6 ×10⁻⁶ cm/s and 45.8 ×10⁻⁶ cm/s, respectively. Moreover, the Papp A→B in data set [11] amounted to 23.5 ×10⁻⁶ cm/s. In data set [12], the Papp B→A is 15.3 ×10⁻⁶ cm/s. Also, the fraction unbound at 3 h in data set [13] came out at 0.122. The half-life at 0.5 µM in data set [14] is more than 2 h; in data set [15] it was 1.27 h; in data set [16], more than 2 h; in data set [17], 0.293 h. Also, the Activity in data set [22] amounted to 58%.

In general, IC50 refers to the point on the concentration scale where inhibition reaches its midpoint. A word on the half-life: it is how long it takes for the measured level to halve. Usually fraction unbound stands for free concentration divided by total concentration.
